Values joined by “and” are separate entries in the source; they are usually repeats but may differ in a detail not shown here. Equal values may be shown once.
Tests used:
L1210 [1] = test: In vivo activity against L1210 leukemia cells in mice at a dose of 16 mg/kg and expressed as percent weight change after 7 days as experiment 2; assay type: functional, Mus musculus
L1210 [2] = test: Antitumor activity (T/C) evaluated against L1210 leukemia from the median survival time of treated mice (T) over that of control mice (C) at a dose of 12 mg/kg as experiment 2; assay type: functional, Mus musculus
L1210 [3] = test: Antitumor activity (T/C) evaluated against L1210 leukemia from the median survival time of treated mice (T) over that of control mice (C) at a dose of 16 mg/kg as experiment 3; assay type: functional, Mus musculus
L1210 [4] = test: Antitumor activity (T/C) evaluated against L1210 leukemia from the median survival time of treated mice (T) over that of control mice (C) at a dose of 16 mg/kg as experiment 1; assay type: functional, Mus musculus
L1210 [5] = test: In vivo activity against L1210 leukemia cells in mice at a dose of 20 mg/kg and expressed as Survival median in days as experiment 2; assay type: functional, Mus musculus
L1210 [6] = test: In vivo activity against L1210 leukemia cells in mice at a dose of 24 mg/kg and expressed as percent weight change after 7 days as experiment 2; assay type: functional, Mus musculus
L1210 [7] = test: In vivo activity against L1210 leukemia cells in mice at a dose of 12 mg/kg and expressed as Survival median in days as experiment 3; assay type: functional, Mus musculus
[8] = Compound was evaluated for growth inhibition of WI-L2 cells.; assay type: functional, cell-based; conditions: Homo sapiens, WIL2
L1210 [9] = test: In vivo activity against L1210 leukemia cells in mice at a dose of 8 mg/kg and expressed as percent weight change after 7 days as experiment 3; assay type: functional, Mus musculus
L1210 [10] = test: In vivo activity against L1210 leukemia cells in mice at a dose of 4 mg/kg and expressed as Survival range in days as experiment 1.; assay type: functional, Mus musculus
L1210 [11] = test: In vivo activity against L1210 leukemia cells in mice at a dose of 2 mg/kg and expressed as percent weight change after 7 days as experiment 1.; assay type: functional, Mus musculus
L1210 [12] = test: In vivo activity against L1210 leukemia cells in mice at a dose of 32 mg/kg and expressed as Survival median in days as experiment 1.; assay type: functional, Mus musculus
L1210 [13] = test: In vivo activity against L1210 leukemia cells in mice at a dose of 4 mg/kg and expressed as Survival median in days as experiment 1.; assay type: functional, Mus musculus
L1210 [14] = test: Antitumor activity (T/C) evaluated against L1210 leukemia from the median survival time of treated mice (T) over that of control mice (C) at a dose of 4 mg/kg as experiment 3; assay type: functional, Mus musculus
L1210 [15] = test: Antitumor activity (T/C) evaluated against L1210 leukemia from the median survival time of treated mice (T) over that of control mice (C) at a dose of 16 mg/kg as experiment 2; assay type: functional, Mus musculus
L1210 [16] = test: In vivo activity against L1210 leukemia cells in mice at a dose of 12 mg/kg and expressed as percent weight change after 7 days as experiment 2; assay type: functional, Mus musculus
L1210 [17] = test: In vivo activity against L1210 leukemia cells in mice at a dose of 16 mg/kg and expressed as percent weight change after 7 days as experiment 3; assay type: functional, Mus musculus
L1210 [18] = test: In vivo activity against L1210 leukemia cells in mice at a dose of 20 mg/kg and expressed as percent weight change after 7 days as experiment 2; assay type: functional, Mus musculus
L1210 [19] = test: In vivo activity against L1210 leukemia cells in mice at a dose of 2 mg/kg and expressed as Survival median in days as experiment 1.; assay type: functional, Mus musculus
L1210 [20] = test: In vivo activity against L1210 leukemia cells in mice at a dose of 4 mg/kg and expressed as Survival median in days as experiment 3; assay type: functional, Mus musculus
L1210 [21] = test: In vivo activity against L1210 leukemia cells in mice at a dose of 16 mg/kg and expressed as Survival median in days as experiment 1.; assay type: functional, Mus musculus
L1210 [22] = test: Antitumor activity (T/C) evaluated against L1210 leukemia from the median survival time of treated mice (T) over that of control mice (C) at a dose of 24 mg/kg as experiment 2; assay type: functional, Mus musculus
L1210 [23] = test: Antitumor activity (T/C) evaluated against L1210 leukemia from the median survival time of treated mice (T) over that of control mice (C) at a dose of 8 mg/kg as experiment 3; assay type: functional, Mus musculus
L1210 [24] = test: In vivo activity against L1210 leukemia cells in mice at a dose of 8 mg/kg and expressed as percent weight change after 7 days as experiment 1.; assay type: functional, Mus musculus
L1210 [25] = test: Antitumor activity (T/C) evaluated against L1210 leukemia from the median survival time of treated mice (T) over that of control mice (C) at a dose of 32 mg/kg as experiment 1; assay type: functional, Mus musculus
L1210 [26] = test: In vivo activity against L1210 leukemia cells in mice at a dose of 16 mg/kg and expressed as Survival median in days as experiment 3; assay type: functional, Mus musculus
L1210 [27] = test: In vivo activity against L1210 leukemia cells in mice at a dose of 4 mg/kg and expressed as percent weight change after 7 days as experiment 1.; assay type: functional, Mus musculus
L1210 [28] = test: In vivo activity against L1210 leukemia cells in mice at a dose of 4 mg/kg and expressed as percent weight change after 7 days as experiment 3; assay type: functional, Mus musculus
L1210 [29] = test: In vivo activity against L1210 leukemia cells in mice at a dose of 8 mg/kg and expressed as Survival median in days as experiment 3; assay type: functional, Mus musculus
L1210 [30] = test: In vivo activity against L1210 leukemia cells in mice at a dose of 8 mg/kg and expressed as Survival median in days as experiment 1.; assay type: functional, Mus musculus
L1210 [31] = test: In vivo activity against L1210 leukemia cells in mice at a dose of 16 mg/kg and expressed as percent weight change after 7 days as experiment 1.; assay type: functional, Mus musculus
L1210 [32] = test: Antitumor activity (T/C) evaluated against L1210 leukemia from the median survival time of treated mice (T) over that of control mice (C) at a dose of 20 mg/kg as experiment 2; assay type: functional, Mus musculus
L1210 [33] = test: Antitumor activity (T/C) evaluated against L1210 leukemia from the median survival time of treated mice (T) over that of control mice (C) at a dose of 2 mg/kg as experiment 1; assay type: functional, Mus musculus
L1210 [34] = test: Antitumor activity (T/C) evaluated against L1210 leukemia from the median survival time of treated mice (T) over that of control mice (C) at a dose of 12 mg/kg as experiment 3; assay type: functional, Mus musculus
L1210 [35] = test: In vivo activity against L1210 leukemia cells in mice at a dose of 16 mg/kg and expressed as Survival median in days as experiment 2; assay type: functional, Mus musculus
L1210 [36] = test: In vivo activity against L1210 leukemia cells in mice at a dose of 32 mg/kg and expressed as percent weight change after 7 days as experiment 1.; assay type: functional, Mus musculus
L1210 [37] = test: In vivo activity against L1210 leukemia cells in mice at a dose of 12 mg/kg and expressed as Survival median in days as experiment 2; assay type: functional, Mus musculus
L1210 [38] = test: Antitumor activity (T/C) evaluated against L1210 leukemia from the median survival time of treated mice (T) over that of control mice (C) at a dose of 4 mg/kg as experiment 1; assay type: functional, Mus musculus
L1210 [39] = test: In vivo activity against L1210 leukemia cells in mice at a dose of 12 mg/kg and expressed as percent weight change after 7 days as experiment 3; assay type: functional, Mus musculus
L1210 [40] = test: Antitumor activity (T/C) evaluated against L1210 leukemia from the median survival time of treated mice (T) over that of control mice (C) at a dose of 1 mg/kg; assay type: functional, Mus musculus
L1210 [41] = test: Antitumor activity (T/C) evaluated against L1210 leukemia from the median survival time of treated mice (T) over that of control mice (C) at a dose of 4 mg/kg; assay type: functional, Mus musculus
L1210 [42] = test: Antitumor activity (T/C) evaluated against L1210 leukemia from the median survival time of treated mice (T) over that of control mice (C) at a dose of […] as experiment 1; assay type: functional, Mus musculus
L1210 [43] = test: Antitumor activity (T/C) evaluated against L1210 leukemia from the median survival time of treated mice (T) over that of control mice (C) at a dose of 0.75 mg/kg as experiment 3

For Nc1nc(N)c2nc(CNc3ccc(C(=O)NC(CCCNC(=O)c4ccccc4C(=O)O)C(=O)O)cc3)cnc2n1 (centres undefined), the weight change % (L1210 [1]) was 1%, the T/C (L1210 [2]) was 188% and the T/C (L1210 [3]) was 300%. For the same compound, the T/C (L1210 [4]) was 188% and 225%, the Survival median (L1210 [5]) was greater than 21 days and the weight change % (L1210 [6]) was -3%. It also gave a Survival median (L1210 [7]) of 22 days, an IC50 [8] of 48 nM and a weight change % (L1210 [9]) of 4%. For the same compound, the Survival range (L1210 [10]) was 13 days, the weight change % (L1210 [11]) was -4% and the Survival median (L1210 [12]) was 11 days. For the same compound, the Survival median (L1210 [13]) was 14 days, the T/C (L1210 [14]) was 213% and the T/C (L1210 [15]) was 225%. It also gave a weight change % (L1210 [16]) of 1%, a body weight change % (L1210 [17]) of -3% and a weight change % (L1210 [18]) of -2%. The Survival median (L1210 [19]) was 13 days, the Survival median (L1210 [20]) was 17 days and the Survival median (L1210 [21]) was 18 days. For the same compound, the T/C (L1210 [22]) was 250%, the T/C (L1210 [23]) was 250% and the weight change % (L1210 [24]) was 4%. The T/C (L1210 [25]) was 138%, the Survival median (L1210 [26]) was 24 days and the weight change % (L1210 [27]) was -3%. The weight change % (L1210 [28]) was 8%, the Survival median (L1210 [29]) was 20 days and the Survival median (L1210 [30]) was 15 days. For the same compound, the weight change % (L1210 [31]) was -5%, the T/C (L1210 [32]) was greater than 263% and the T/C (L1210 [33]) was 163%. It also gave a T/C (L1210 [34]) of 275%, a Survival median (L1210 [35]) of 18 days and a weight change % (L1210 [36]) of -11%. For the same compound, the Survival median (L1210 [37]) was 15 days, the T/C (L1210 [38]) was 175% and the weight change % (L1210 [39]) was 2%.
With CN(Cc1cnc2nc(N)nc(N)c2n1)c1ccc(C(=O)N[C@@H](CCC(=O)O)C(=O)O)cc1 [METHOTREXATE] the T/C (L1210 [40]) was 188%, the T/C (L1210 [41]) was 175% and 188% and 200% and the T/C (L1210 [42]) was 213%. The T/C (L1210 [43]) was 175%.
Nc1nc(N)c2nc(CNc3ccc(C(=O)N[C@@H](CCC(=O)O)C(=O)O)cc3)cnc2n1 [AMINOPTERIN] gave an IC50 [8] of 7.1 nM.

Reference: ChEMBL document CHEMBL1125236 (J Med Chem, 1991)
